{"source": "patent US20080241215A1", "about": "“LOCAL VASCULAR DELIVERY OF PROBUCOL ALONE OR IN COMBINATION WITH SIROLIMUS TO TREAT RESTENOSIS, VULNERABLE PLAQUE, AAA AND STROKE” (priority 2007, published 2008)", "key": {"[1]": {"system": "patients undergoing coronary angioplasty", "assay": "MVP randomized clinical trial (angiographic and clinical endpoints)", "assay_type": "in vivo, human", "from_the_text": "In addition, the invention enables the skilled practitioner to use probucol in conjunction with other percutaneous coronary interventions such as stenting if it is deemed appropriate. The present invention concerns the IVUS substudy from the MVP restenosis trial. MVP was a double-blind placebo-controlled randomized clinical trial with four study groups. The protocol was approved by the Montreal Heart Institute institutional review board. The MVP study design, inclusion and exclusion criteria have been previously described (N Engl J Med 1997; 365-372). Briefly, patients referred for elective coronary angioplasty were evaluated at least 30 days prior to their scheduled procedure. Eligible patients were asked to provide written informed consent. Patients were eligible if they were scheduled to undergo standard balloon angioplasty on at least one native coronary artery and had at least one de novo target lesion with luminal narrowing of fifty percent or more by caliper measurements. Beginning thirty days prior to scheduled angioplasty, patients were randomly assigned to receive either probucol alone, multivitamins alone, the combination of probucol and multivitamins, or placebo. Probucol 500 mg or matched placebo was administered twice daily. The multivitamin complex, consisting of vitamin E 700 IU, vitamin C 500 mg and beta-carotene 30,000 IU, or matched placebo was also administered in one tablet twice daily. […] Balloon angioplasty was performed according to standard techniques. […] The sequence of contrast injections with the exact degree of angulation was recorded and used for every angiogram. Coronary arteriograms (pre-, post-procedure, and final follow-up) were analyzed together using the Coronary Measurement System (CMS), as previously reported. Patient follow-up included clinical evaluation, exercise treadmill testing, blood chemistry, pill count and drug level measurements, and dietary assessment and intervention. Patients were readmitted for follow-up coronary angiography at five to seven months. Patients in whom arteriography was performed for clinical reasons before the fifth month returned for repeat angiographic examination at five to seven months if no definite angiographic restenosis was present on at least one dilated site. During follow-up, patients with recurrence or exacerbation of anginal symptoms were treated with medical therapy or revascularization procedures (reangioplasty or Coronary Bypass Surgery) as clinically indicated. Patients with angiographic restenosis (lesion>50%. at follow-up) without clinical evidence of ischemia were not subjected to further interventional procedures."}, "[2]": {"system": "coronary arteries (angioplasty site)", "assay": "IVUS substudy of the MVP restenosis trial", "assay_type": "in vivo, human", "settings": "for EEM area / Lumen area / Wall area: per segment, mean ± SD", "experimental": "The present invention concerns the IVUS substudy from the MVP restenosis trial. MVP was a double-blind placebo-controlled randomized clinical trial with four study groups. The protocol was approved by the Montreal Heart Institute institutional review board. The MVP study design, inclusion and exclusion criteria have been previously described (N Engl J Med 1997; 365-372). Briefly, patients referred for elective coronary angioplasty were evaluated at least 30 days prior to their scheduled procedure. Eligible patients were asked to provide written informed consent. Patients were eligible if they were scheduled to undergo standard balloon angioplasty on at least one native coronary artery and had at least one de novo target lesion with luminal narrowing of fifty percent or more by caliper measurements.\nBeginning thirty days prior to scheduled angioplasty, patients were randomly assigned to receive either probucol alone, multivitamins alone, the combination of probucol and multivitamins, or placebo. Probucol 500 mg or matched placebo was administered twice daily. The multivitamin complex, consisting of vitamin E 700 IU, vitamin C 500 mg and beta-carotene 30,000 IU, or matched placebo was also administered in one tablet twice daily. All patients received an extra dose of probucol 1000 mg and/or vitamin E 2000 IU and/or matched placebos twelve hours before angioplasty, according to randomization assignment. […] All patients received aspirin 325 mg daily started at least thirty days before procedure and continued for the study period. Balloon angioplasty was performed according to standard techniques. Intracoronary nitroglycerin (0.3 mg) was given for each target artery for both pre- and post-dilatation angiography and at follow-up. The sequence of contrast injections with the exact degree of angulation was recorded and used for every angiogram. Coronary arteriograms (pre-, post-procedure, and final follow-up) were analyzed together using the Coronary Measurement System (CMS), as previously reported. Patient follow-up included clinical evaluation, exercise treadmill testing, blood chemistry, pill count and drug level measurements, and dietary assessment and intervention. Patients were readmitted for follow-up coronary angiography at five to seven months. Patients in whom arteriography was performed for clinical reasons before the fifth month returned for repeat angiographic examination at five to seven months if no definite angiographic restenosis was present on at least one dilated site. During follow-up, patients with recurrence or exacerbation of anginal symptoms were treated with medical therapy or revascularization procedures (reangioplasty or Coronary Bypass Surgery) as clinically indicated. Patients with angiographic restenosis (lesion>50%. at follow-up) without clinical evidence of ischemia were not subjected to further interventional procedures.\nIVUS examinations were performed using 30 MHZ, 3.5 French mechanical (1800 rpm) ultrasound catheters (Boston Scientific, Natick, Mass.) and a dedicated imaging console (Hewlett Packard, Andover, Mass.) (Curr Opin Cardiol 1994; 9:627-633). In six patients, both examinations were performed using 20 MHZ, 3.5 French 64-element IVUS catheters (Endosonics, Pleasanton, Calif.). IVUS studies were first performed after coronary angioplasty (after final balloon inflation) and then after follow-up angiography (before any subsequent intervention) and were always preceded by administration of intracoronary nitroglycerin (0.3 mg). IVUS imaging was monitored by an experienced cardiologist, but the angioplasty operator was blinded to ultrasound results to avoid altering standard balloon angioplasty practice. The IVUS catheter was advanced distal to the dilated site to an easily recognizable landmark, most often a side branch, which was noted and used for follow-up IVUS examination. One angiographic view was recorded on videotape before beginning pullback of the IVUS catheter. […]"}, "LDL": {"system": "LDL", "assay": "LDL peroxidation lag phase ex vivo (diene conjugates after addition of copper ions)", "assay_type": "biochemical, human", "settings": "treatment for one month; compared with vitamins alone or the combination of probucol and vitamins; preliminary results"}, "[3]": {"settings": "probucol given alone, compared to placebo"}, "[4]": {"settings": "Follow-up Post PTCA (follow-up minus after angioplasty), listed as Probucol Alone"}, "[5]": {"settings": "Follow-up Post PTCA, efficacy analysis in compliant patients"}, "[6]": {"settings": "Follow-up, listed as Probucol Alone"}}}
{"smiles": "CC(C)(Sc1cc(C(C)(C)C)c(O)c(C(C)(C)C)c1)Sc1cc(C(C)(C)C)c(O)c(C(C)(C)C)c1", "note": "[probucol, 4,4′-([1-methylethylidene)bis(thio)]bis-[2,6-bis(1,1-dimethylethyl)phenol]]", "values": [{"measurement": "patients with restenosis", "setting": "[1]; MVP study", "value": "over twenty"}, {"measurement": "reduction in the need for repeat angioplasty", "setting": "[1]; probucol given alone, at 6 month, compared to placebo", "value": "fifty-eight"}, {"measurement": "reduction in angiographic lumen loss", "setting": "[1]; [3]", "value": "sixty-eight"}, {"measurement": "reduction in restenosis rate per segment", "setting": "[1]; [3]", "value": "forty-seven"}, {"measurement": "EEM area", "setting": "[2]; After Angioplasty", "value": "12.20 ± 4.66", "unit": "mm^2"}, {"measurement": "Lumen area", "setting": "[2]; After Angioplasty", "value": "4.62 ± 1.59", "unit": "mm^2"}, {"measurement": "Wall area", "setting": "[2]; After Angioplasty", "value": "7.57 ± 3.98", "unit": "mm^2"}, {"measurement": "Lumen area, change", "setting": "[2]; Follow-up Post PTCA (follow-up minus after angioplasty)", "value": "−0.15 ± 1.70", "unit": "mm^2"}, {"measurement": "EEM area, change", "setting": "[2]; [4]", "value": "1.74 ± 1.80", "unit": "mm^2"}, {"measurement": "Wall area, change", "setting": "[2]; [4]", "value": "1.89 ± 1.87", "unit": "mm^2"}, {"measurement": "EEM area, change", "setting": "[2]; Follow-up Post PTCA (follow-up minus after angioplasty), listed as probucol alone", "value": 1.74, "unit": "mm^2"}, {"measurement": "EEM area, change", "setting": "[2]; [5]", "value": "1.74 ± 1.80", "unit": "mm^2"}, {"measurement": "Lumen area, change", "setting": "[2]; [5]", "value": "−0.15 ± 1.70", "unit": "mm^2"}, {"measurement": "Wall area, change", "setting": "[2]; [5]", "value": "1.89 ± 1.87", "unit": "mm^2"}, {"measurement": "EEM area", "setting": "[2]; [6]", "value": "13.93 ± 4.74", "unit": "mm^2"}, {"measurement": "Lumen area", "setting": "[2]; [6]", "value": "4.47 ± 1.93", "unit": "mm^2"}, {"measurement": "Wall area", "setting": "[2]; [6]", "value": "9.46 ± 4.36", "unit": "mm^2"}, {"measurement": "patients with an increase in EEM area of at least 1 mm^2 at follow-up", "setting": "[2]; in vivo", "value": 72.0, "unit": "%"}, {"measurement": "increase in vessel enlargement", "setting": "[2]; probucol only compared with placebo", "value": "seven hundred-thirty"}, {"measurement": "protection against LDL oxidation (lag phase for LDL peroxidation)", "setting": "LDL", "value": "significantly greater protection against LDL oxidation"}]}
